The results in this text go back to patent US8822449B2, “Substituted aminoindanes and analogs thereof, and the pharmaceutical use thereof” (Sanofi, priority 2008, dated 2014).

This experiment has as its target T1, sodium-proton exchanger of subtype 3 (NHE3) (Homo sapiens, UniProt P48764).
T1 construct: expressed in transfected cells
T1 sequence (P48764 26-834): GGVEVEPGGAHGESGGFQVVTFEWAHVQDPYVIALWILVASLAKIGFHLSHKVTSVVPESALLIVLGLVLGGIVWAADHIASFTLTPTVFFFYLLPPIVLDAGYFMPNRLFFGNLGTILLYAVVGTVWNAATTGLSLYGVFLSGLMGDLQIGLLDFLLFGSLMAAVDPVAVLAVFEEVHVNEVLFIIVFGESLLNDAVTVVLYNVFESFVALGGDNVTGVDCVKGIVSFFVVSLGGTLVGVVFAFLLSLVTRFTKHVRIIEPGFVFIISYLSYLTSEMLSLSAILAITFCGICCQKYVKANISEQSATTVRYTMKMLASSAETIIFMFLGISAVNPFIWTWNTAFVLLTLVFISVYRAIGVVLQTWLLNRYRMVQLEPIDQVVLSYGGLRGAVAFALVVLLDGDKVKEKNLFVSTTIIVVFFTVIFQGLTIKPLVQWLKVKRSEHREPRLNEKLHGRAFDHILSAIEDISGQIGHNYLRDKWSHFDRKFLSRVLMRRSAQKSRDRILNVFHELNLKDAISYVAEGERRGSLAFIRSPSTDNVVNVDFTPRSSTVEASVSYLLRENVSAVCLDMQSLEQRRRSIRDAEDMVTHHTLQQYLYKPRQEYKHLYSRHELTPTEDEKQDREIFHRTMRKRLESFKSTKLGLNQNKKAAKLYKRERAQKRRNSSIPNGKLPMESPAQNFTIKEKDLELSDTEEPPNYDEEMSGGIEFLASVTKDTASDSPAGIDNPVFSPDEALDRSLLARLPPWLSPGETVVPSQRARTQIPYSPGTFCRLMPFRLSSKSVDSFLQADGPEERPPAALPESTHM
The experiment is described as follows: Recovery of intracellular pH (pHi) after acidification in LAP1 cells stably expressing NHE3 (BCECF fluorescence, FLIPR). Format: cell-based. As to conditions: LAP1 cells stably expressing NHE3, pH recovery after acidification, range 1 is % inhibition at 10 μM.

Where [1] appears, read: read-out: Activity range (inhibitory effect on NHE3).

Molecules are shown by their SMILES. Like-named read-outs stand apart in the source and are kept apart here.

With `Cc1cc(O[C@H]2c3cc(Cl)cc(F)c3C[C@@H]2N2CCNCC2)ccc1S(=O)(=O)C(F)(F)F` (racemic) [Example 290, 1-[rac-trans-(1,2)-6-chloro-4-fluoro-1-(3-methyl-4-trifluoromethanesulfonylphenoxy)indan-2-yl]piperazine], under setting [1], the inhibition at 10 µM lay in the range of 20 to 50%.
On to `Cc1nnc(C)n1-c1ccc(O[C@H]2c3cc(Cl)cc(F)c3C[C@@H]2NC2CCCC2)c(F)c1` [Example 749, {trans-(1S,2S)-6-Chloro-1-[4-(3,5-dimethyl-[1,2,4]triazol-4-yl)-2-fluoro-phenoxy]-4-fluoro-indan-2-yl}-cyclopentyl-amine], for which, under setting [1], the IC50 lay within 1 to 10 µM.
The same measure, in the same setting: to `COC(=O)c1ccc(O[C@H]2c3cc(Cl)cc(Cl)c3C[C@@H]2N2CC[C@@H](O)C2)c(F)c1` [Example 553, 4-[trans-(1S,2S)-4,6-dichloro-2-((R)-3-hydroxypyrrolidin-1-yl)indan-1-yloxy]-3-fluorobenzoic acid methyl ester] belongs 1 to 10 µM; to `CS(=O)(=O)c1ccc(O[C@H]2c3cc(Cl)cc(Cl)c3C[C@@H]2N2CC(O)C2)cc1` [Example 307, 1-[trans-(1S,2S)-4,6-dichloro-1-(4-methanesulfonylphenoxy)indan-2-yl]azetidin-3-ol], 1 to 10 µM.
With `Cc1nnc(C)n1-c1ccc(O[C@H]2c3cc(Cl)cc(Cl)c3C[C@@H]2N2CC[C@@](C)(O)C2)cc1` (racemic) [Example 111, (R)-1-{(1S,2S)-4,6-dichloro-1-[4-(3,5-dimethyl-[1,2,4]triazol-4-yl)phenoxy]indan-2-yl}-3-methylpyrrolidin-3-ol], under setting [1], the IC50 is less than 1 µM.
The same measure, in the same setting: the same measure for `NC1CCN([C@@H]2Cc3ccccc3[C@H]2Oc2cccc(N3CCNCC3)c2)C1` (mixture of isomers) [Example 270, 1-[rac-trans-(1,2)-1-(3-piperazin-1-ylphenoxy)indan-2-yl]pyrrolidin-3-ylamine]: 1 to 10 µM; for `Cc1nnc(C2CC2)n1-c1ccc(O[C@H]2c3ccccc3C[C@@H]2N2CCCC2)cc1` (racemic) [Example 448, 3-Cyclopropyl-5-methyl-4-[4-(rac-trans-(1,2)-2-pyrrolidin-1-ylindan-1-yloxy)phenyl]-4H-[1,2,4]triazole]: less than 1 µM.
On the same count and under the same terms, the same measure for `Cc1nnc(C)n1-c1ccc(O[C@H]2c3cc(Cl)cc(Cl)c3C[C@@H]2N2CC[C@H](O)C2)cc1` [Example 206, (S)-1-{trans-(1S,2S)-4,6-dichloro-1-[4-(3,5-dimethyl-[1,2,4]triazol-4-yl)phenoxy]indan-2-yl}pyrrolidin-3-ol]: less than 1 µM.
As to `CS(=O)(=O)c1ccc(O[C@H]2c3ccccc3C[C@@H]2NCc2ccccc2)cc1` (racemic) [Example 597, benzyl[1-(4-methanesulfonylphenoxy)indan-2-yl]amine], the inhibition at 10 µM under setting [1] lay within 20 to 50%.
Turning to `N[C@@H]1CCCN([C@H]2CCc3ccccc3[C@@H]2Oc2ccnc(Cl)c2)C1` (racemic) [Example 40, (R)-1-[rac-trans-(1,2)-1-(2-chloropyridin-4-yloxy)-1,2,3,4-tetrahydronaphthalen-2-yl]piperidin-3-ylamine], the inhibition at 10 µM under setting [1] fell in the range of 20 to 50%.
Still for that read-out and setting: the same measure for `N[C@@H]1CCCN([C@H]2CCc3ccccc3[C@@H]2Oc2ccccc2OC(F)(F)F)C1` (racemic) [Example 50, (R)-1-[rac-trans-(1,2)-1-(2-trifluoromethoxyphenoxy)-1,2,3,4-tetrahydronaphthalen-2-yl]piperidin-3-ylamine]: 20 to 50%.
In the case of `CS(=O)(=O)c1ccc(O[C@H]2c3cc(Cl)cc(Cl)c3C[C@@H]2N2CC[C@H](N)C2)cc1` [Example 199, (S)-1-[trans-(1S,2S)-4,6-dichloro-1-(4-methanesulfonylphenoxy)indan-2-yl]pyrrolidin-3-ylamine], the IC50 under setting [1] was less than 1 µM.
Regarding `N[C@@H]1CCCN([C@H]2CCc3ccccc3[C@@H]2Oc2ccc(N3CCNCC3)cc2)C1` (racemic) [Example 75, (R)-1-[rac-trans-(1,2)-1-(4-piperazin-1-ylphenoxy)-1,2,3,4-tetrahydronaphthalen-2-yl]piperidin-3-ylamine], the inhibition at 10 µM under setting [1] fell in the range of 20 to 50%.
With `NC1CCN([C@@H]2Cc3ccccc3[C@H]2Oc2ccc(Br)cc2-c2cc[nH]n2)CC1` (racemic) [Example 343, 1-{rac-trans-(1,2)-1-[4-bromo-2-(1H-pyrazol-3-yl)phenoxy]indan-2-yl}piperidin-4-ylamine], the IC50 under setting [1] was in the range of 1 to 10 µM.
As for `COc1cc(O[C@H]2c3ccccc3CC[C@@H]2N2CCC[C@@H](N)C2)ccc1Br` (racemic) [Example 63, (R)-1-[rac-trans-(1,2)-1-(4-bromo-3-methoxyphenoxy)-1,2,3,4-tetrahydronaphthalen-2-yl]piperidin-3-ylamine], the inhibition at 10 µM under setting [1] was 20 to 50%.
As for `CCNS(=O)(=O)c1ccc(O[C@@H]2c3ccccc3C[C@H]2N2CCCC2)cc1` (racemic) [Example 700, N-ethyl-4-(rac-trans-(1,2)-2-pyrrolidin-1-ylindan-1-yloxy)benzenesulfonamide], the IC50 under setting [1] is less than 1 µM.
Same read-out and setting: the same measure for `CS(=O)(=O)c1ccc(O[C@H]2c3ccccc3C[C@@H]2N2CCC[C@@H](N)C2)cc1` [Example 95, (R)-1-[trans-(1S,2S)-1-(4-methanesulfonylphenoxy)indan-2-yl]piperidin-3-ylamine]: less than 1 µM.
Still for that read-out and setting: the same measure for `Cc1c(O[C@H]2c3cc(Cl)cc(Cl)c3C[C@@H]2N2CC[C@@H](O)C2)ccc(-n2c(C)nnc2C)c1C` [Example 127, (R)-1-{trans-(1S,2S)-4,6-dichloro-1-[4-(3,5-dimethyl-[1,2,4]triazol-4-yl)-2,3-dimethylphenoxy]indan-2-yl}pyrrolidin-3-ol]: less than 1 µM; for `CN(C)CCCN(C)[C@H]1Cc2ccccc2[C@@H]1Oc1ccc(S(C)(=O)=O)cc1` (racemic) [Example 669, N-[rac-trans-(1,2)-1-(4-methanesulfonylphenoxy)indan-2-yl]-N,N′,N′-trimethylpropane-1,3-diamine]: 1 to 10 µM.
The same measure, in the same setting: the same measure for `CS(=O)(=O)c1ccc(O[C@H]2c3cc(F)cc(Cl)c3C[C@@H]2N2CCCC2)cc1` (racemic) [Example 284, 1-[rac-trans-(1,2)-4-chloro-6-fluoro-1-(4-methanesulfonylphenoxy)indan-2-yl]pyrrolidine]: 1 to 10 µM; for `O=c1[nH]ccn1-c1ccc(O[C@H]2c3cc(Cl)cc(Cl)c3C[C@@H]2N2CC[C@@H](O)C2)c(F)c1` [Example 323, 1-{4-[(1S,2S)-4,6-dichloro-2-((R)-3-hydroxypyrrolidin-1-yl)indan-1-yloxy]-3-fluorophenyl}-1,3-dihydroimidazol-2-one]: less than 1 µM.
As to `CC(=O)Nc1cccc(O[C@H]2c3cc(Cl)cc(Cl)c3C[C@@H]2N2C[C@H]3CC[C@@H](C2)N3)c1` [Example 664, N-[3-(trans-(1S,2S)-4,6-dichloro-2-3,8-diazabicyclo[3.2.1]oct-3-ylindan-1-yloxy)phenyl]acetamide], for the setting “Activity range (inhibitory effect on NHE3)”, the IC50 was less than 1 µM.
Regarding `Cc1nnc(C)n1-c1ccc(O[C@H]2c3cc(Cl)cc(Cl)c3C[C@@H]2N2CC[C@@H](O)C2)c(F)c1` [Example 130, (R)-1-{trans-(1S,2S)-4,6-dichloro-1-[4-(3,5-dimethyl-[1,2,4]triazol-4-yl)-2-fluorophenoxy]indan-2-yl}pyrrolidin-3-ol], under setting [1], the IC50 is less than 1 µM.
For the compound `N[C@@H]1CCCN([C@@H]2Cc3c(Cl)cc(Cl)cc3[C@H]2Oc2ccccc2)C1` [Example 23, (R)-1-(trans-(1R,2R)-4,6-dichloro-1-phenoxyindan-2-yl)piperidin-3-ylamine], the IC50 under setting [1] fell in the range of 1 to 10 µM.
Same read-out and setting: the same measure for `O=C1CCC(=O)N1c1cccc(O[C@H]2c3cc(Cl)cc(Cl)c3C[C@@H]2N2CC[C@@H](O)C2)c1` [Example 316, 1-{3-[(1S,2S)-4,6-dichloro-2-((R)-3-hydroxypyrrolidin-1-yl)indan-1-yloxy]phenyl}pyrrolidine-2,5-dione]: 1 to 10 µM; for `CS(=O)(=O)c1ccc(O[C@H]2c3cc(Cl)c(Cl)cc3C[C@@H]2N2CCCNCC2)cc1` (racemic) [Example 286, 1-[rac-trans-(1,2)-5,6-dichloro-1-(4-methanesulfonylphenoxy)indan-2-yl]-[1,4]diazepane]: 1 to 10 µM.
In the case of `Cc1nc(C)c(-c2ccc(O[C@H]3c4cc(Cl)cc(Cl)c4C[C@@H]3N3CC[C@@H](O)C3)cc2)s1` [Example 125, (R)-1-{trans-(1S,2S)-4,6-dichloro-1-[4-(2,4-dimethyl-thiazol-5-yl)phenoxy]indan-2-yl}pyrrolidin-3-ol], the inhibition at 10 µM under setting [1] fell in the range of 20 to 50%.
On to `Cc1nn(-c2ccc(O[C@H]3c4cc(Cl)cc(Cl)c4C[C@@H]3N3CC[C@@H](O)C3)cc2)c(=O)o1` [Example 733, 3-{4-[trans-(1S,2S)-4,6-Dichloro-2-((R)-3-hydroxy-pyrrolidin-1-yl)-indan-1-yloxy]-phenyl}-5-methyl-3H-[1,3,4]oxadiazol-2-one], for which, under setting [1], the IC50 lay within 1 to 10 µM.
